Legend:
Human recombinant PTP1B = biological target: T1, Human recombinant PTP1B (Homo sapiens, UniProt P18031); format: biochemical
T1 construct: made in house
T1 sequence (P18031 1-435): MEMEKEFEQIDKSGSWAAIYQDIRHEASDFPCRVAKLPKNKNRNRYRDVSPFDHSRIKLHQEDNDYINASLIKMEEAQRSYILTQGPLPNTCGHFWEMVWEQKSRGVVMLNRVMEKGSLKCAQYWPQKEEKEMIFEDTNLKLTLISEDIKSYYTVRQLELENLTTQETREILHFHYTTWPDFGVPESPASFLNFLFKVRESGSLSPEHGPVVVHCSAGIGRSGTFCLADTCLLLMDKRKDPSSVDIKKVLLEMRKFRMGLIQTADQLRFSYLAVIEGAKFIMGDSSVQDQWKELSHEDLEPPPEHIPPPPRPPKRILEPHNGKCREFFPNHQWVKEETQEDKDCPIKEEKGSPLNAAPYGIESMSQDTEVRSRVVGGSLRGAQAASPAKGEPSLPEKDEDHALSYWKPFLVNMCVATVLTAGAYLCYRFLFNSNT

[1] = system: rat hepatic microsomal PTPases; conditions: PTPase activity; compounds at 50 μM
diabetic (ob/ob) mice = assay: Blood glucose lowering activity in diabetic (ob/ob) mice; format: in vivo; conditions: for % Change Glucose from Vehicle: plasma glucose
From the text: The procedures used and results obtained are briefly described below.
The non-insulin dependent diabetic (NIDDM) syndrome can be typically characterizes by obesity, hyperglycemia, abnormal insulin secretion, hyperinsulinemia and insulin resistance.
In each test procedure, mice [Male or female ob/ob (C57 B1/6J) and their lean litermates (ob/+ or +/+, Jackson Laboratories) ages 2 to 5 months (10 to 65 g)] of a similar age were randomized according to body weight into 4 groups of 10 mice. The mice were housed 5 per cage and are maintained on normal rodent chow with water ad libitum. Mice received test compound daily by gavage (suspended in 0.5 ml of 0.5% methyl cellulose); dissolved in the drinking water; or admixed in the diet. The dose of compounds given ranges from 2.5 to 200 mg/kg body weight/day. The dose is calculated based on the fed weekly body weight and is expressed as active moiety. The positive control, ciglitazone ([…], see Chang, A., Wyse, B., Gilchrist, B., Peterson, T. and Diani, A. Diabetes 32: 830-838, 1983.) was given at a dose of 100 mg/kg/day, which produces a significant lowering in plasma glucose. Control mice received vehicle only.
On the morning of Day 4, 7 or 14 two drops of blood (approximately 50 ul) were collected into sodium fluoride containing tubes either from the tail vein or after decapitation. For those studies in which the compound was administered daily by gavage the blood samples were collected two hours after compound administration. The plasma was isolated by centrifugation and the concentration of glucose is measured enzymatically on an Abbott V. P. Analyzer.
For each mouse, the percentage change in plasma glucose on Day 4, 7 or 14 is calculated relative to the mean plasma glucose of the vehicle treated mice. Analysis of variance followed by Dunett's Comparison Test (one-tailed) are used to estimate the significant difference between the plasma glucose values from the control group and the individual compound treated groups (CMS SAS Release 5.18).

| Compound | IC50 (Human recombinant PTP1B) [nM] | % Change from Control [1] [%] | other results |
| --- | --- | --- | --- |
| Cc1oc2cc3sc4ccccc4c3c(-c3ccc(O)cc3)c2c1C [Example 5, 4-(2,3-Dimethyl-1-oxa-9-thia-cyclopenta[b]fluoren-4-yl)-phenol] | – | – | melting point: 174 to 175 °C |
| CC1(COc2ccc(CC3SC(=O)NC3=O)cc2)CCCCC1 (stereo not shown) [Ciglitazone, 5-(4-(1-methylcyclohexylmethoxy)benzyl)-2,4-dione, reference compound] | – | – | % Change Insulin from Vehicle (diabetic (ob/ob) mice; dose 100 mg/Kg): −39%; % Change Glucose from Vehicle (diabetic (ob/ob) mice; dose 100 mg/Kg): −43% |

The next lines start with results.

| IC50 (Human recombinant PTP1B) [nM] | % Change from Control [1] [%] | Compound | other results |
| --- | --- | --- | --- |
| 74 | −72.70 | Cc1oc2cc3sc4ccccc4c3c(-c3cc(I)c(O[C@H](Cc4ccccc4)C(=O)O)c(I)c3)c2c1C [Example 9, (R)-2-[4-(2,3-Dimethyl-1-oxa-9-thia-cyclopenta[b]fluoren-4-yl)-2,6-diiodo-phenoxy]-3-phenyl-propionic acid] | % Change Insulin from Vehicle (diabetic (ob/ob) mice; dose 10 mg/Kg): −43.43%; % Change Glucose from Vehicle (diabetic (ob/ob) mice; dose 10 mg/Kg, footnote (a): no significant activity (p < 0.05) at this dose): 8.13% |
| 8700 | – | Ammonium molybdate tetrahydrate [reference compound] | – |
| 284 | −58.84 | Cc1oc2cc3sc4ccccc4c3c(-c3cc(I)c(O[C@H](C)C(=O)O)c(I)c3)c2c1C [Example 8, (R)-2-[4-(2,3-Dimethyl-1-oxa-9-thia-cyclopenta[b]fluoren-4-yl)-2,6-diiodo-phenoxy]-propionic acid] | – |

Source: patent publication US6340676B2, “4-aryl-1-oxa-9-thia-cyclopenta (b) fluorenes” (American Home Products Corporation, priority 1998, dated 2002)
